Counter-ions that a name gives are not always drawn.
Key:
[1] = target: T1, recombinant human Meningioma Expressed Antigen 5 (MGEA5), also referred to as O-GlcNAcase (OGA) (Homo sapiens, UniProt O60502); test: OGA biochemical assay (inhibition of FM-GlcNAc hydrolysis, fluorescence); settings: FM-GlcNAc substrate; for IC50: 6 h at room temperature, read-out: Enzymatic hOGA, pIC50 (converted); for Emax: read-out: Enzymatic Emax (%)
T1 construct: Full length OGA enzyme was purchased at OriGene (cat #TP322411); purchased OriGene TP322411
T1 sequence (O60502 1-916): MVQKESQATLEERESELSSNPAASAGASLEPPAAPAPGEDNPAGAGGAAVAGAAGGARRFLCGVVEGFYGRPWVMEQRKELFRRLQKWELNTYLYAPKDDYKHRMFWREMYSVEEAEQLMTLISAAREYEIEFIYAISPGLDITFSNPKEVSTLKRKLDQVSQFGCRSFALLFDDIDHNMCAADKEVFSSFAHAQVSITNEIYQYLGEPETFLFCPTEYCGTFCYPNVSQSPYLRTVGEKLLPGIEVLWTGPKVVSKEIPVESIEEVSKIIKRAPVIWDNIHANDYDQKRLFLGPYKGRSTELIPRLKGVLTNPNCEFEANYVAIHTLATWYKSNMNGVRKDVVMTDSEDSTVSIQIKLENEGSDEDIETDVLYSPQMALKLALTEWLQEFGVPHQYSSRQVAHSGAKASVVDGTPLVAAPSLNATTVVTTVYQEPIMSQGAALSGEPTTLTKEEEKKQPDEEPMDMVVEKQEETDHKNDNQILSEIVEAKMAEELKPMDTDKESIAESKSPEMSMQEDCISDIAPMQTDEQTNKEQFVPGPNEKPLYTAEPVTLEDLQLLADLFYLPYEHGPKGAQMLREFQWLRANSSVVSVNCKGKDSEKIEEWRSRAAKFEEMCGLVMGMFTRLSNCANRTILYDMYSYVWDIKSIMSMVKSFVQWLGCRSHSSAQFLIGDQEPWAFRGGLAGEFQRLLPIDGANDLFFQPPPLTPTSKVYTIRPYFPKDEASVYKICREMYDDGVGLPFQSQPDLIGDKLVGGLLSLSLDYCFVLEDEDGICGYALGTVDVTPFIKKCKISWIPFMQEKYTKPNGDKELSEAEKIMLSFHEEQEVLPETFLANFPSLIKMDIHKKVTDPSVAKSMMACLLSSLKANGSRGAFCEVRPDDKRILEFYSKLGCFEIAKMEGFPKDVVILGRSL
Outline: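 Full-length human OGA (2 nM) pre-incubated 60 min at room temperature with compound, then FM-GlcNAc (100 µM final) added in citrate/phosphate buffer pH 7.2 with 0.005% Tween-20; 6 h at room temperature, stopped with carbonate pH 11.0. Fluorescein read at 485/538 nm; IC50 and Hill coefficient from curve fit.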

[2] = target: T2, OGA (Homo sapiens, UniProt O60502); test: OGA cellular assay (ICC detection of O-GlcNAcylated proteins in HEK293 cells inducible for P301L mutant human Tau); assay type: cell-based; settings: for Emax: HEK293, HEK293 cells inducible for P301L mutant human Tau; for EC50: read-out: Cellular hOGA, pEC50 (converted)
T2 construct: endogenous in cells; host or cells: HEK293 cells inducible for P301L mutant human Tau (isoform 2N4R)
T2 sequence (O60502 1-916): T1 sequence (O60502 1-916)
Outline: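 HEK293 cells inducible for P301L human Tau (2N4R), in low-glucose medium, treated 6 h with compounds at 0.2% DMSO. After PFA fixation, O-GlcNAcylated proteins immunostained (CTD110.6), intensity imaged at 488 nm, Hoechst nuclei counted for toxicity. IC50 via non-linear regression; Thiamet G 200 uM as maximum.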

[3] = maximum defined by Thiamet G at 200 uM
[4] = HEK293 cells inducible for P301L mutant human Tau, 6 hours incubation, ICC O-GlcNAcylation

melting point [°C] | IC50 [1] [µM] | Emax ([1]; maximal effect) [%] | Emax [2, 3] [%] | EC50 [2, 4] [µM] | Enzymatic Emax (%) ([1]; maximal effect) | Cellular hOGA; pEC50 [2, 4] | Cellular Emax (%) ([2]; HEK293 cells inducible for P301L mutant human Tau, maximum defined by Thiamet G at 200 uM) | SMILES
297.5 |  |  |  |  |  |  |  | Cc1cc(C[C@H]2CCN(C(C)c3ccc4c(c3)OCCN4C)C2)cc(C)n1 (stereo partly drawn) (as salt: HCl) [Product 1]
 | 0.0501 | 95 | 59 | 0.437 |  |  |  | Cc1cc(O[C@@H]2CCN(C(C)c3nc4c(cc3F)OCCO4)C2)nc(C)n1 (stereo partly drawn) [Product 128]
 | 0.316 | 100 | 17 | > 1 |  |  |  | Cc1cc(CC2(C)CCN(C(C)c3ccc4c(n3)OCCO4)C2)cc(C)n1 (stereo not drawn) [Product 58]
 | > 10 |  |  |  | 13 | <6 | −4 | Cc1cc(OC[C@]2(C)CCN([C@H](C)c3ccc4c(n3)OCCO4)C2)cc(C)n1 (single isomer, unassigned) [Product 101]

Further lines, the compound ahead of its results:

SMILES | melting point [°C] | IC50 [1] [µM] | Emax ([1]; maximal effect) [%] | Emax [2, 3] [%] | EC50 [2, 4] [µM] | Enzymatic Emax (%) ([1]; maximal effect) | Cellular hOGA; pEC50 [2, 4] | Cellular Emax (%) ([2]; HEK293 cells inducible for P301L mutant human Tau, maximum defined by Thiamet G at 200 uM)
COc1cc(CC2(C)CCN(C(C)c3ccc4c(n3)OCCO4)C2)cc(C)n1 (single isomer, unassigned) [Product 95] |  | 0.0794 | 100 | 39 | > 1 |  |  | 
Cc1ccc(O[C@H]2CCN(C(C)c3nc4c(cc3F)OCCO4)C2)cn1 (stereo partly drawn) [Product 57] |  | 0.316 | 96 | 33 | > 1 |  |  | 
COc1cc(C[C@H]2CN([C@H](C)c3ccc4c(n3)OCCO4)C[C@@H]2C)cc(C)n1 (stereo in doubt) [Product 121] |  | 0.0501 | 99 | 47 | > 1 |  |  | 
Cc1cc(C[C@H]2CCN(C(C)c3cnc4c(c3)OCCN4)C2)cc(C)n1 (mixture of isomers) [Product 80] |  | 0.0398 | 101 | 71 | 0.398 |  |  | 
Cc1ncc(O[C@@H]2CCN(C(C)c3ccc4c(n3)OCCO4)C2)cn1 (stereo partly drawn) [Product 62] |  | 2.51 | 86 | 1 | > 1 |  |  | 

From US20210277015A1, “OGA INHIBITOR COMPOUNDS” (Janssen Pharmaceutica NV, priority 2018, published 2021)
